Assay results published in patent US20260198493A1, “HYDRAZIDE COMPOUND AND AGRICULTURAL/HORTICULTURAL FUNGICIDE” (Nippon Soda Co., Ltd., priority 2022, published 2026).

Assays:
Colletotrichum acutatum = assay: Fungicidal effect test against fungi causing apple anthracnose; conditions: 96 h, read-out: growth inhibition ratio
Botrytis cinerea [1] = type: cell-based; conditions: 120 h, 25 ppm by volume, Vogel medium, 20° C., five days, dark, read-out: growth inhibition ratio
Botrytis cinerea [2] = assay: Control test of cucumber gray mold (sprayed young cucumber seedlings); type: in vivo; conditions: 96 h, four days after inoculation; for pest or weed control at 25 ppm: 25 ppm by mass spray; for pest or weed control at 125 ppm: 125 ppm by mass spray
Procedure: Then, the drug liquid was sprayed onto young cucumber seedlings cultivated in a nursery pot (variety “Jihai”-based, cotyledon stage), and then air-dried. […] They were left still in a moist room at 20° C. Four days after inoculation, leaves of the young cucumber seedlings were visually observed, and the control value was calculated from the lesion area ratio in accordance with the following equation. [formula]

Glomerella cingulata = assay: Fungicidal effect test against fungi causing grape ripe rot disease; conditions: Colletotrichum gloeosporioides, 72 h, read-out: growth inhibition ratio
Fusarium graminearum = assay: microbe, parasite or virus in culture; type: cell-based; conditions: 96 h, read-out: growth inhibition ratio
[3] = system: Erysiphe graminis f.sp.tritici; assay: Control test of wheat powdery mildew disease (sprayed young wheat seedlings); type: in vivo; conditions: Blumeria graminis, 144 h, 125 ppm by mass spray, six days after inoculation
Venturia inaequalis = assay: Control test of apple scab disease (sprayed young apple seedlings); type: in vivo; conditions: 125 ppm by mass spray, 12 to 14 days after inoculation

COC(=O)N(Cc1ccc(OC)cc1Cl)NC(=O)c1cc(C)nnc1Oc1cccc(C2CC2)c1F [b-171]
≥ 75%: inhibition of growth at 25 ppm (Colletotrichum acutatum) | inhibition of growth at 25 ppm (Botrytis cinerea [1]) | pest or weed control at 25 ppm (Botrytis cinerea [2]) | pest or weed control at 125 ppm (Botrytis cinerea [2]) | inhibition of growth at 25 ppm (Glomerella cingulata) | inhibition of growth at 25 ppm (Fusarium graminearum) | pest or weed control at 125 ppm [3] | pest or weed control at 125 ppm (Venturia inaequalis)

COC(=O)N(Cc1ccc(C)cc1Cl)NC(=O)c1c(Oc2cccc(Cl)c2F)nnc(Cl)c1C [b-176]
≥ 75%: inhibition of growth at 25 ppm (Colletotrichum acutatum) | inhibition of growth at 25 ppm (Botrytis cinerea [1]) | pest or weed control at 25 ppm (Botrytis cinerea [2]) | pest or weed control at 125 ppm (Botrytis cinerea [2]) | inhibition of growth at 25 ppm (Glomerella cingulata) | inhibition of growth at 25 ppm (Fusarium graminearum) | pest or weed control at 125 ppm [3] | pest or weed control at 125 ppm (Venturia inaequalis)

COC(=O)N(Cc1ccc(C)cc1Cl)NC(=O)c1c(C)cnnc1Oc1cccc(C2CC2)c1F [b-177]
≥ 75%: inhibition of growth at 25 ppm (Colletotrichum acutatum) | inhibition of growth at 25 ppm (Botrytis cinerea [1]) | pest or weed control at 25 ppm (Botrytis cinerea [2]) | pest or weed control at 125 ppm (Botrytis cinerea [2]) | inhibition of growth at 25 ppm (Glomerella cingulata) | inhibition of growth at 25 ppm (Fusarium graminearum) | pest or weed control at 125 ppm [3] | pest or weed control at 125 ppm (Venturia inaequalis)

COC(=O)N(Cc1ccc(C)cc1Cl)NC(=O)c1c(C)cncc1Oc1cccc(C2CC2)c1 [b-178]
≥ 75%: inhibition of growth at 25 ppm (Colletotrichum acutatum) | inhibition of growth at 25 ppm (Botrytis cinerea [1]) | pest or weed control at 25 ppm (Botrytis cinerea [2]) | pest or weed control at 125 ppm (Botrytis cinerea [2]) | inhibition of growth at 25 ppm (Glomerella cingulata) | inhibition of growth at 25 ppm (Fusarium graminearum) | pest or weed control at 125 ppm [3] | pest or weed control at 125 ppm (Venturia inaequalis)

Cc1ccc(CN(NC(=O)c2cc(C)nnc2Oc2cccc(C3CC3)c2F)C(=O)OC2CC2)c(C)c1 [b-184, Cyclopropyl 2-(3-(3-cyclopropyl-2-fluorophenoxy)-6-methylpyridazine-4-carbonyl)-1-(2,4-dimethylbenzyl)hydrazine-1-carboxylate]
≥ 75%: inhibition of growth at 25 ppm (Colletotrichum acutatum) | inhibition of growth at 25 ppm (Botrytis cinerea [1]) | pest or weed control at 25 ppm (Botrytis cinerea [2]) | pest or weed control at 125 ppm (Botrytis cinerea [2]) | inhibition of growth at 25 ppm (Glomerella cingulata) | inhibition of growth at 25 ppm (Fusarium graminearum) | pest or weed control at 125 ppm [3] | pest or weed control at 125 ppm (Venturia inaequalis)

COC(=O)N(Cc1ccc(C)cc1C)NC(=O)c1ccncc1Oc1cccc(Cl)c1F [b-187]
≥ 75%: inhibition of growth at 25 ppm (Colletotrichum acutatum) | inhibition of growth at 25 ppm (Botrytis cinerea [1]) | pest or weed control at 25 ppm (Botrytis cinerea [2]) | pest or weed control at 125 ppm (Botrytis cinerea [2]) | inhibition of growth at 25 ppm (Glomerella cingulata) | inhibition of growth at 25 ppm (Fusarium graminearum) | pest or weed control at 125 ppm [3] | pest or weed control at 125 ppm (Venturia inaequalis)

COC(=O)N(Cc1ccc(C)cc1C)NC(=O)c1c(C)cnnc1Oc1cccc(Cl)c1F [b-191]
≥ 75%: inhibition of growth at 25 ppm (Colletotrichum acutatum) | inhibition of growth at 25 ppm (Botrytis cinerea [1]) | pest or weed control at 25 ppm (Botrytis cinerea [2]) | pest or weed control at 125 ppm (Botrytis cinerea [2]) | inhibition of growth at 25 ppm (Glomerella cingulata) | inhibition of growth at 25 ppm (Fusarium graminearum) | pest or weed control at 125 ppm [3] | pest or weed control at 125 ppm (Venturia inaequalis)

Cc1ccc(CN(NC(=O)c2ccncc2Oc2cccc(C3CC3)c2F)C(=O)OC2COC2)c(C)c1 [b-196]
≥ 75%: inhibition of growth at 25 ppm (Colletotrichum acutatum) | inhibition of growth at 25 ppm (Botrytis cinerea [1]) | pest or weed control at 25 ppm (Botrytis cinerea [2]) | pest or weed control at 125 ppm (Botrytis cinerea [2]) | inhibition of growth at 25 ppm (Glomerella cingulata) | inhibition of growth at 25 ppm (Fusarium graminearum) | pest or weed control at 125 ppm [3] | pest or weed control at 125 ppm (Venturia inaequalis)

COC(=O)N(Cc1ccc(C)cc1C)NC(=O)c1c(F)cncc1Oc1cccc(C2CC2)c1F [b-199]
≥ 75%: inhibition of growth at 25 ppm (Colletotrichum acutatum) | inhibition of growth at 25 ppm (Botrytis cinerea [1]) | pest or weed control at 25 ppm (Botrytis cinerea [2]) | pest or weed control at 125 ppm (Botrytis cinerea [2]) | inhibition of growth at 25 ppm (Glomerella cingulata) | inhibition of growth at 25 ppm (Fusarium graminearum) | pest or weed control at 125 ppm [3] | pest or weed control at 125 ppm (Venturia inaequalis)

COC(=O)N(Cc1ccc(OC)cc1C)NC(=O)c1c(F)cncc1Oc1cccc(Cl)c1F [b-202]
≥ 75%: inhibition of growth at 25 ppm (Colletotrichum acutatum) | inhibition of growth at 25 ppm (Botrytis cinerea [1]) | pest or weed control at 25 ppm (Botrytis cinerea [2]) | pest or weed control at 125 ppm (Botrytis cinerea [2]) | inhibition of growth at 25 ppm (Glomerella cingulata) | inhibition of growth at 25 ppm (Fusarium graminearum) | pest or weed control at 125 ppm [3] | pest or weed control at 125 ppm (Venturia inaequalis)

COC(=O)N(Cc1ccc(C)cc1C)NC(=O)c1cc(C(F)(F)F)ncc1Oc1cccc(C2CC2)c1F [b-204]
≥ 75%: inhibition of growth at 25 ppm (Colletotrichum acutatum) | inhibition of growth at 25 ppm (Botrytis cinerea [1]) | pest or weed control at 25 ppm (Botrytis cinerea [2]) | pest or weed control at 125 ppm (Botrytis cinerea [2]) | inhibition of growth at 25 ppm (Glomerella cingulata) | inhibition of growth at 25 ppm (Fusarium graminearum) | pest or weed control at 125 ppm [3] | pest or weed control at 125 ppm (Venturia inaequalis)

COC(=O)N(Cc1ccc(C)cc1C)NC(=O)c1c(OC)cncc1Oc1cccc(C2CC2)c1F [b-208]
≥ 75%: inhibition of growth at 25 ppm (Colletotrichum acutatum) | inhibition of growth at 25 ppm (Botrytis cinerea [1]) | pest or weed control at 25 ppm (Botrytis cinerea [2]) | pest or weed control at 125 ppm (Botrytis cinerea [2]) | inhibition of growth at 25 ppm (Glomerella cingulata) | inhibition of growth at 25 ppm (Fusarium graminearum) | pest or weed control at 125 ppm [3] | pest or weed control at 125 ppm (Venturia inaequalis)

CCc1cncc(Oc2cccc(C3CC3)c2F)c1C(=O)NN(Cc1ccc(C)cc1C)C(=O)OC [b-212]
≥ 75%: inhibition of growth at 25 ppm (Colletotrichum acutatum) | inhibition of growth at 25 ppm (Botrytis cinerea [1]) | pest or weed control at 25 ppm (Botrytis cinerea [2]) | pest or weed control at 125 ppm (Botrytis cinerea [2]) | inhibition of growth at 25 ppm (Glomerella cingulata) | inhibition of growth at 25 ppm (Fusarium graminearum) | pest or weed control at 125 ppm [3] | pest or weed control at 125 ppm (Venturia inaequalis)

COC(=O)N(Cc1ccc(C)cc1C)NC(=O)c1c(Oc2cccc(C3CC3)c2)cnnc1OC(C)C [b-223]
≥ 75%: inhibition of growth at 25 ppm (Colletotrichum acutatum) | inhibition of growth at 25 ppm (Botrytis cinerea [1]) | pest or weed control at 25 ppm (Botrytis cinerea [2]) | pest or weed control at 125 ppm (Botrytis cinerea [2]) | inhibition of growth at 25 ppm (Glomerella cingulata) | inhibition of growth at 25 ppm (Fusarium graminearum) | pest or weed control at 125 ppm [3] | pest or weed control at 125 ppm (Venturia inaequalis)

COC(=O)N(Cc1ccc(C)cc1C)NC(=O)c1c(Oc2cccc(Cl)c2F)nnc(Cl)c1C [b-227]
≥ 75%: inhibition of growth at 25 ppm (Colletotrichum acutatum) | inhibition of growth at 25 ppm (Botrytis cinerea [1]) | pest or weed control at 25 ppm (Botrytis cinerea [2]) | pest or weed control at 125 ppm (Botrytis cinerea [2]) | inhibition of growth at 25 ppm (Glomerella cingulata) | inhibition of growth at 25 ppm (Fusarium graminearum) | pest or weed control at 125 ppm [3] | pest or weed control at 125 ppm (Venturia inaequalis)

COC(=O)N(Cc1ccc(C)cc1C)NC(=O)c1c(C)cnnc1Oc1cccc(C2CC2)c1F [b-228]
≥ 75%: inhibition of growth at 25 ppm (Colletotrichum acutatum) | inhibition of growth at 25 ppm (Botrytis cinerea [1]) | pest or weed control at 25 ppm (Botrytis cinerea [2]) | pest or weed control at 125 ppm (Botrytis cinerea [2]) | inhibition of growth at 25 ppm (Glomerella cingulata) | inhibition of growth at 25 ppm (Fusarium graminearum) | pest or weed control at 125 ppm [3] | pest or weed control at 125 ppm (Venturia inaequalis)

COC(=O)N(Cc1ccc(OC)cc1C)NC(=O)c1c(C)cncc1Oc1cccc(C2CC2)c1 [b-229]
≥ 75%: inhibition of growth at 25 ppm (Colletotrichum acutatum) | inhibition of growth at 25 ppm (Botrytis cinerea [1]) | pest or weed control at 25 ppm (Botrytis cinerea [2]) | pest or weed control at 125 ppm (Botrytis cinerea [2]) | inhibition of growth at 25 ppm (Glomerella cingulata) | inhibition of growth at 25 ppm (Fusarium graminearum) | pest or weed control at 125 ppm [3] | pest or weed control at 125 ppm (Venturia inaequalis)

CCc1cncc(Oc2cccc(C3CC3)c2F)c1C(=O)NN(Cc1ccc(OC)cc1C)C(=O)OC [b-230]
≥ 75%: inhibition of growth at 25 ppm (Colletotrichum acutatum) | inhibition of growth at 25 ppm (Botrytis cinerea [1]) | pest or weed control at 25 ppm (Botrytis cinerea [2]) | pest or weed control at 125 ppm (Botrytis cinerea [2]) | inhibition of growth at 25 ppm (Glomerella cingulata) | inhibition of growth at 25 ppm (Fusarium graminearum) | pest or weed control at 125 ppm [3] | pest or weed control at 125 ppm (Venturia inaequalis)

COC(=O)N(Cc1ccc(C)cc1C)NC(=O)c1c(Cl)cncc1Oc1cccc(Cl)c1F [b-231]
≥ 75%: inhibition of growth at 25 ppm (Colletotrichum acutatum) | inhibition of growth at 25 ppm (Botrytis cinerea [1]) | pest or weed control at 25 ppm (Botrytis cinerea [2]) | pest or weed control at 125 ppm (Botrytis cinerea [2]) | inhibition of growth at 25 ppm (Glomerella cingulata) | inhibition of growth at 25 ppm (Fusarium graminearum) | pest or weed control at 125 ppm [3] | pest or weed control at 125 ppm (Venturia inaequalis)

Cc1ccc(CN(NC(=O)c2cc(C)nnc2Oc2cccc(C3CC3)c2F)C(=O)OC2COC2)c(C)c1 [b-232]
≥ 75%: inhibition of growth at 25 ppm (Colletotrichum acutatum) | inhibition of growth at 25 ppm (Botrytis cinerea [1]) | pest or weed control at 25 ppm (Botrytis cinerea [2]) | pest or weed control at 125 ppm (Botrytis cinerea [2]) | inhibition of growth at 25 ppm (Glomerella cingulata) | inhibition of growth at 25 ppm (Fusarium graminearum) | pest or weed control at 125 ppm [3] | pest or weed control at 125 ppm (Venturia inaequalis)
